Patent publication US10266535B2, “Inhibitor of FLT3 kinase and use thereof” (HEFEI INSTITUTES OF PHYSICAL SCIENCE, CHINESE ACADEMY OF …, priority 2015, dated 2019)

What was measured:
[1] = tested on: TEL-JAK1-BaF3 (stably expressing JAK1 kinase); assay: Cell proliferation, Cell Titer-Glo, TEL-JAK1-BaF3; type: cell-based; conditions: Mus musculus; incubated for 72 hours
Method: (§1) The above cell lines were constructed by our laboratory.
(§2) The number of viable cells was determined by quantification of ATP in living cells using the Cell Titer-Glo® (Promega, USA) chemiluminescence cell viability assay kit.

[2] = tested on: TEL-BaF3-BMX (stably expressing BMX kinase); assay: Cell proliferation, Cell Titer-Glo, TEL-BaF3-BMX; type: cell-based; conditions: Mus musculus; incubated for 72 hours
Method: as §1, §2

[3] = tested on: TEL-cKIT-BaF3 (stably expressing cKIT kinase); assay: Cell proliferation, Cell Titer-Glo, TEL-cKIT-BaF3; type: cell-based; conditions: Mus musculus; incubated for 72 hours
Method: as §1, §2

pro-B cell BaF3 = assay: Cell proliferation, Cell Titer-Glo, BaF3; type: cell-based; conditions: Mus musculus, incubated for 72 hours
Method: as §1, §2

[4] = tested on: TEL-BaF3-BLK (stably expressing BLK kinase); assay: Cell proliferation, Cell Titer-Glo, TEL-BaF3-BLK; type: cell-based; conditions: Mus musculus; incubated for 72 hours
Method: as §1, §2

[5] = tested on: TEL-BaF3-FLT3/ITD (stably expressing FLT3/ITD mutant activated kinase); assay: Cell proliferation, Cell Titer-Glo, TEL-BaF3-FLT3/ITD; type: cell-based, mouse; conditions: Mus musculus, 72 h, incubated for 72 hours; read-out: TEL-BaF3-FLT3/ITD IC50
Method: as §1, §2

[6] = tested on: MV4-11 (expressing FLT3/ITD mutant gene); assay: Cell proliferation, Cell Titer-Glo, MV4-11; type: cell-based; conditions: Homo sapiens, MV4-11; incubated for 72 hours; read-out: MV4-11 IC50
Method: as §1, §2

[7] = tested on: MOLM-13 (expressing FLT3/ITD mutant gene and wild-type FLT3 gene); assay: Cell proliferation, Cell Titer-Glo, MOLM-13; type: cell-based; conditions: Homo sapiens, MOLM-13; incubated for 72 hours; read-out: MOLM-13 IC50
Method: as §1, §2

[8] = tested on: U937 (expressing wild-type FLT3 gene); assay: Cell proliferation, Cell Titer-Glo, U937; type: cell-based, human; conditions: Homo sapiens, U-937, 72 h, incubated for 72 hours; read-out: U937 IC50
Method: as §1, §2

BTK protein kinase = BTK protein kinase (Homo sapiens (Human), UniProt Q06187); assay: In vitro inhibition activity (enzymatic activity), ADP-Glo, BTK; type: biochemical; conditions: ATP 10 μM
Sequence of BTK protein kinase (Q06187 whole entry): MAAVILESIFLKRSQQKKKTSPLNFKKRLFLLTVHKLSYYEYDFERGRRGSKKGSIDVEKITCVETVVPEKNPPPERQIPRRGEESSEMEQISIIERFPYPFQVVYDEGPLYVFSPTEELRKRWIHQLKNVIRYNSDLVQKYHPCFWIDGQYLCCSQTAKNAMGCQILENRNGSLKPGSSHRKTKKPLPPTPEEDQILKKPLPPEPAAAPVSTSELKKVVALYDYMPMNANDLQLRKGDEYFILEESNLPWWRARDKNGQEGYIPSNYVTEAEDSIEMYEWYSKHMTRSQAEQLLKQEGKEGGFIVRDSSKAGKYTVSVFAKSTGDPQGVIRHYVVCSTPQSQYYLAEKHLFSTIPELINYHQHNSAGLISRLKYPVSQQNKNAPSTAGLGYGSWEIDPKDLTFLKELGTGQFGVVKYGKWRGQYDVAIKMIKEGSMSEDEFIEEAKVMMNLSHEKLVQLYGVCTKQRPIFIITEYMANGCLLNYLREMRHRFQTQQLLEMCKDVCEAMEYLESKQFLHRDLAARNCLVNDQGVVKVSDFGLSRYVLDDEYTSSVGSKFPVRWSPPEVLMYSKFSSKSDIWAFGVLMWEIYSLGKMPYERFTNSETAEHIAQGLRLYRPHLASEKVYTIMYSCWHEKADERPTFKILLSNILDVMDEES

[9] = tested on: TEL-BaF3-EGFR (stably expressing EGFR kinase); assay: Cell proliferation, Cell Titer-Glo, TEL-BaF3-EGFR; type: cell-based; conditions: Mus musculus; incubated for 72 hours
Method: as §1, §2

[10] = tested on: MOLM-14 (expressing FLT3/ITD mutant gene and wild-type FLT3 gene); assay: Cell proliferation, Cell Titer-Glo, MOLM-14; type: cell-based; conditions: Homo sapiens, MOLM-14; incubated for 72 hours; read-out: MOLM-14 IC50
Method: as §1, §2

[11] = tested on: TEL-BaF3-FLT3-D835Y (stably expressing FLT3 D835Y mutant activated kinase); assay: Cell proliferation, Cell Titer-Glo, TEL-BaF3-FLT3-D835Y; type: cell-based; conditions: Mus musculus; incubated for 72 hours; read-out: TEL-BaF3-FLT3-D835Y IC50
Method: as §1, §2

[12] = tested on: TPR-MET-BaF3 (stably expressing MET kinase); assay: Cell proliferation, Cell Titer-Glo, TPR-MET-BaF3; type: cell-based; conditions: Mus musculus; incubated for 72 hours
Method: as §1, §2

[13] = tested on: OCI-AML-3 (expressing FLT3 A680V mutant gene); assay: Cell proliferation, Cell Titer-Glo, OCI-AML3; type: cell-based; conditions: Homo sapiens, incubated for 72 hours
Method: as §1, §2

SMILES | IC50 [1] [µM] | IC50 [2] [µM] | IC50 [3] [µM] | IC50 (pro-B cell BaF3) [µM] | IC50 [4] [µM] | IC50 [5] [µM] | IC50 [6] [µM] | IC50 [7] [µM] | IC50 [8] [µM] | IC50 (BTK protein kinase) [µM] | IC50 [9] [µM] | IC50 [10] [µM] | IC50 [11] [µM] | IC50 [12] [µM] | IC50 [13] [µM]
NC(=O)CC[C@@H](N)C(=O)N1CCC[C@@H](n2nc(-c3ccc(Oc4ccccc4)cc3)c3c(N)ncnc32)C1 [Compound 57] | 4.71 | 2.3 | 3.4 | 8.43 | 0.54 | 0.12 | 0.06 | 0.76 |  |  |  |  |  |  | 
Nc1ncnc2c1c(-c1ccc(Oc3ccccc3)cc1)nn2[C@@H]1CCCN(C(=O)[C@H](N)Cc2c[nH]c3ccccc23)C1 [Compound 8, (R)-2-amino-1-((R)-3-(4-amino-(4-phenoxyphenyl)-1H-pyrazolo[3,4-d]pyrimidin-1-yl)piperidin-1-yl)-3-(1H-indol-3-yl)propan-1-one] | 0.27 | 0.55 | 0.75 | 0.62 | 0.56 | 0.27 | 0.27 | 0.18 | 1 | 0.254 | 1.4 | 0.31 | 0.089 |  | 
Nc1ncnc2c1c(-c1ccc(Oc3ccccc3)cc1)nn2[C@@H]1CCCN(C(=O)[C@H](N)CO)C1 [Compound 48] |  |  |  | 6.5 | 1.1 | 0.046 | 0.061 | 0.052 | > 10 | 0.028 |  | 0.079 |  | 3.52 | 4.36
CC(C)C[C@@H](N)C(=O)N1CC[C@@H](n2nc(-c3ccc(Oc4ccccc4)cc3)c3c(N)ncnc32)C1 [Compound 28, (R)-2-amino-1-((R)-3-(4-amino-(4-phenoxyphenyl)-1H-pyrazolo[3,4-d]pyrimidin-1-yl)pyrrolidin-1-yl)-4-methylpentan-1-one] | 0.91 | 0.39 | 5.3 | 2.15 | 0.083 | 0.041 | 0.12 | 1.9 |  |  |  |  |  |  | 
CN(C)CC(=O)N1CC[C@@H](n2nc(-c3ccc(Oc4ccccc4)cc3)c3c(N)ncnc32)C1 [Compound 65] | 0.89 | 1.2 | 3.5 | 8.42 | 0.36 | 0.041 | 0.083 | 0.23 |  |  |  |  |  |  | 
Nc1ncnc2c1c(-c1ccc(Oc3ccccc3)cc1)nn2[C@@H]1CCCN(S(N)(=O)=O)C1 [Compound 4, (R)-3-(4-amino-(4-phenoxyphenyl)-1H-pyrazolo[3,4-d]pyrimidin-1-yl)piperidin-1-sulfonamide] | > 10 | 0.82 | 4.9 | > 10 | 1.4 |  | 0.3 | 0.23 |  |  | > 10 | 0.68 | 0.16 | > 10 | 
CC(O)[C@@H](N)C(=O)N1CCC[C@@H](n2nc(-c3ccc(Oc4ccccc4)cc3)c3c(N)ncnc32)C1 (stereo partly drawn) [Compound 44, (R)-2-amino-1-((R)-3-(4-amino-(4-phenoxyphenyl)-1H-pyrazolo[3,4-d]pyrimidin-1-yl)piperidin-1-yl)-3-hydroxybutanone] |  | 0.119 |  | 3.9 | 1 | 0.022 | 0.064 | 0.072 | > 10 | 0.053 |  | 0.059 |  | 2.76 | 3.76
N#CCC(=O)N1CCC[C@@H](n2nc(-c3ccc(Oc4ccccc4)cc3)c3c(N)ncnc32)C1 [Compound 20] | > 10 | 0.047 | 3.3 | > 10 | 0.52 | 0.12 | 0.2 | 0.16 | > 10 |  | 4.7 | 0.41 | 0.15 | > 10 | 
